Key:
[1] = target: T1, Gastrin/cholecystokinin type B receptor (Homo sapiens, UniProt P32239); test: Displacement of [125I]BH-CCK-8S from human recombinant CCK2 receptor expressed in NIH3T3 cells
T1 sequence (P32239 whole entry): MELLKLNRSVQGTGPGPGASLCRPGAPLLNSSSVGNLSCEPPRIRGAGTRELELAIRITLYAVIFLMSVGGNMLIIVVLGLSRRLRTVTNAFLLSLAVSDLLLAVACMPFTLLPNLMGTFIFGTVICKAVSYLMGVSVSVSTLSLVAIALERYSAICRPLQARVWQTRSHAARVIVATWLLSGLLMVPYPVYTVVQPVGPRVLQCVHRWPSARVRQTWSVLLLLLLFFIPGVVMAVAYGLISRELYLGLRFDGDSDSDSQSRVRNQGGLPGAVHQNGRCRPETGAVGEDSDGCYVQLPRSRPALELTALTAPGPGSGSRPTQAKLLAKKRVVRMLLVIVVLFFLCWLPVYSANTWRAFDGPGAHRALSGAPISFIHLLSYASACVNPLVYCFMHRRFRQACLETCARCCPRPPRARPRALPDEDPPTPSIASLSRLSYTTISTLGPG

[2] = target: T2, Cholecystokinin receptor type A (Homo sapiens, UniProt P32238); test: Displacement of [3H]L-364718 from human recombinant CCK1 receptor expressed in CHOK1 cells; assay type: cell-based, CHO-K1
T2 sequence (P32238 whole entry): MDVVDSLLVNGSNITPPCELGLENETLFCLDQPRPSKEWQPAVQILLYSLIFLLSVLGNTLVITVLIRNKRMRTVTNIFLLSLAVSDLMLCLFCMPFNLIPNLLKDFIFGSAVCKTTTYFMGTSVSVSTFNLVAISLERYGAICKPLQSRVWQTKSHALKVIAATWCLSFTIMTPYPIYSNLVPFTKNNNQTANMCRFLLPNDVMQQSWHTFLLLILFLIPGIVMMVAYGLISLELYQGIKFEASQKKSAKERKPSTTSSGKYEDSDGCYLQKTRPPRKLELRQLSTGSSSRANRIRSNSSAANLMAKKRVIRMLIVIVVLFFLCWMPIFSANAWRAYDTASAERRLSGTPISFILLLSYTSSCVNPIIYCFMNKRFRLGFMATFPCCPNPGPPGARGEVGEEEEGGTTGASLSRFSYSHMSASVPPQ

[3] = target: T2, Cholecystokinin receptor type A; test: Displacement of [3H]L-364718 from human recombinant CCK1 receptor expressed in PC3 cells; assay type: cell-based, PC-3
[4] = target: T3, Gastrin/cholecystokinin type B receptor (Canis lupus familiaris) (UniProt P30552); test: Inhibition of pentagastrin-stimulated gastric acid secretion in conscious gastric fistula dog at 0.05 mg/kg, iv; assay type: functional, organism-based; parameters: dose 0.05 mg/kg; settings: Stomach
T3 sequence (whole entry): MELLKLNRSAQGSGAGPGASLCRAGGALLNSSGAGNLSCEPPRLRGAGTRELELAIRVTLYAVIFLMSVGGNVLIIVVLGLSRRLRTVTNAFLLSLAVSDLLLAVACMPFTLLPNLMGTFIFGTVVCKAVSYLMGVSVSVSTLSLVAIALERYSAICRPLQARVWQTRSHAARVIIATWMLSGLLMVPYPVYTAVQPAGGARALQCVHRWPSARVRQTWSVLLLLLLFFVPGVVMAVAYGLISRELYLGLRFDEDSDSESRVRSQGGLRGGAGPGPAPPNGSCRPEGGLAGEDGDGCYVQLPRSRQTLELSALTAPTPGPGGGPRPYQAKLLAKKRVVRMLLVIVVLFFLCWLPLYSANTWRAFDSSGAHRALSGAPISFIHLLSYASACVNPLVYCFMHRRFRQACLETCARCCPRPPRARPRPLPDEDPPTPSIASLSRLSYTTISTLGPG

[5] = target: T3, Gastrin/cholecystokinin type B receptor (Canis lupus familiaris); test: Inhibition of pentagastrin-stimulated gastric acid secretion in conscious gastric fistula dog at 1 mg/kg, iv; assay type: functional, organism-based; parameters: dose 1 mg/kg; settings: Stomach
[6] = target: T4, Gastrin/cholecystokinin type B receptor (Rattus norvegicus, UniProt P30553); test: Antagonist activity at CCK2 receptor in perfused rat stomach assessed as inhibition of pentagastrin-stimulated gastric acid secretion; assay type: functional, tissue-based; settings: read-out: pA2 (converted)
T4 sequence (P30553 whole entry): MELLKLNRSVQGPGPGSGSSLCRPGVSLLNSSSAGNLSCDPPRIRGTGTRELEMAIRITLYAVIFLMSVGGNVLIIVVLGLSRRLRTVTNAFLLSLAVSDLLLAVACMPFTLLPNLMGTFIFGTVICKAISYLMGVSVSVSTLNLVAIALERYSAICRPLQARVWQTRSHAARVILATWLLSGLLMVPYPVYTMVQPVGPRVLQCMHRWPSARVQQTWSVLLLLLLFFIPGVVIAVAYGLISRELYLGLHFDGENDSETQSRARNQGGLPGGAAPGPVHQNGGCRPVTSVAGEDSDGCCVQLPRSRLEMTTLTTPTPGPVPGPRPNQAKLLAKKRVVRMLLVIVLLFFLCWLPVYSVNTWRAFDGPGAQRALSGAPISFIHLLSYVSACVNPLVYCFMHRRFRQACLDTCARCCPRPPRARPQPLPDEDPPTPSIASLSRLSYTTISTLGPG

[7] = target: T5, Gastrin/cholecystokinin type B receptor (Canis lupus familiaris, UniProt P30552); test: Displacement of [125I]BH-[…] from CCK2 receptor in canine gastric mucosa; assay type: tissue-based
T5 sequence (P30552 whole entry): T3 sequence (whole entry)

| SMILES | Ki [1] [nM] | Ki [2] [nM] | Ki [3] [µM] | also measured |
| --- | --- | --- | --- | --- |
| O=C(CN1N=C(C2CCCCC2)c2ccccc2N(CC(=O)C2CCCCC2)C1=O)Nc1cccc(C(=O)O)c1 | 0.794 | 7940 | – | – |
| CC(C)(C)C(=O)CN1C(=O)N(CC(=O)Nc2ccc3cnn(CC(=O)O)c3c2)N=C(C2CCCCC2)c2ccccc21 | 0.832 | 2140 | – | – |
| CC(C)(C)C(=O)CN1C(=O)N(CC(=O)Nc2cccc(C(=O)O)c2)N=C(C2CCCC2)c2ccccc21 | 24 | – | > 10 | – |
| O=C(O)c1cccc(NC(=O)c2nc(C3CCCCC3)[nH]c2COC23CC4CC(CC(C4)C2)C3)c1 | 19.5 | – | > 10 | inhibition [4]: 97%; inhibition [5]: 66% |
| CC(C)(C)C(=O)CN1C(=O)N(CC(=O)Nc2cccc(NCC(=O)O)c2)N=C(C2CCCCC2)c2ccccc21 | 6.17 | – | 8.51 | – |
| CC(C)(C)C(=O)CN1C(=O)N(CC(=O)Nc2cccc3c2ccn3CC(=O)O)N=C(C2CCCCC2)c2ccccc21 | 6.03 | > 10000 | – | – |
| CN(c1cccc(NC(=O)CN2N=C(C3CCCCC3)c3ccccc3N(CC(=O)C(C)(C)C)C2=O)c1)c1nn[nH]n1 | 1.95 | – | 6.46 | Kb [6]: 24 nM; Ki [7]: 4.68 nM |
| CN1C(=O)N(CC(=O)Nc2cccc(C(=O)O)c2)N=C(C2CCCCC2)c2ccccc21 | 1200 | – | > 10 | – |
| CC(C)(C)C(=O)CN1C(=O)N(CC(=O)Nc2cccc(SCC(=O)O)c2)N=C(C2CCCCC2)c2ccccc21 | 0.646 | – | 0.646 | Kb [6]: 2.75 nM; Ki [7]: 5.75 nM |
| CC(C)(C)C(=O)CN1C(=O)N(CC(=O)Nc2cccc(-c3cccn3CC(=O)O)c2)N=C(C2CCCCC2)c2ccccc21 | 0.912 | – | – | – |
| CC(C)(C)C(=O)CN1C(=O)N(CC(=O)Nc2cccc(-c3csc(C(=O)O)n3)c2)N=C(C2CCCCC2)c2ccccc21 | 0.661 | > 10000 | – | – |
| CC(C)(C)C(=O)CN1C(=O)N(CC(=O)Nc2cccc(-c3nn[nH]n3)c2)N=C(C2CCCCC2)c2ccccc21 | 1 | 1740 | – | Kb [6]: 7.76 nM; Ki [7]: 3.16 nM |
| CC(C)(C)C(=O)CN1C(=O)N(CC(=O)Nc2cccc(C(=O)O)c2)N=C(C23CC4CC(CC(C4)C2)C3)c2ccccc21 | 24 | – | 0.372 | – |
| CC(C)(C)C(=O)CN1C(=O)N(CC(=O)Nc2ccc3ncn(CC(=O)O)c3c2)N=C(C2CCCCC2)c2ccccc21 | 17 | > 10000 | – | – |
| CC(C)(C)C(=O)CN1C(=O)N(CC(=O)Nc2cccc(-c3ccc(C(=O)O)o3)c2)N=C(C2CCCCC2)c2ccccc21 | 0.245 | 457 | – | – |
| CC(C)(C)C(=O)CN1C(=O)N(CC(=O)Nc2cccc(OCC(=O)O)c2)N=C(C2CCCCC2)c2ccccc21 | 5.5 | – | 4.07 | – |
| CC(C)(C)C(=O)CN1C(=O)N(CC(=O)Nc2cccc3c2cnn3CC(=O)O)N=C(C2CCCCC2)c2ccccc21 | 2.75 | 6920 | – | – |
| CC(C)(C)C(=O)CN1C(=O)N(CC(=O)Nc2cccc(SCc3nn[nH]n3)c2)N=C(C2CCCCC2)c2ccccc21 | 0.708 | 389 | – | – |
| CC(C)(C)C(=O)CN1C(=O)N(CC(=O)Nc2ccc3ccn(CC(=O)O)c3c2)N=C(C2CCCCC2)c2ccccc21 | 0.295 | 550 | – | Ki [7]: 2.4 nM |
| CC(C)(C)C(=O)CN1C(=O)N(CC(=O)Nc2cccc(-c3cccc(C(=O)O)c3)c2)N=C(C2CCCCC2)c2ccccc21 | 1.58 | 550 | – | – |
| CC(C)(C)C(=O)CN1C(=O)N(CC(=O)Nc2cccc(-c3nc(C(=O)O)co3)c2)N=C(C2CCCCC2)c2ccccc21 | 0.363 | 661 | – | – |

| SMILES | Ki [1] [nM] | Ki [2] [nM] | Ki [3] [µM] | also measured |
| --- | --- | --- | --- | --- |
| CC(C)(C)C(=O)CN1C(=O)N(CC(=O)Nc2cccc(S(=O)(=O)CC(=O)O)c2)N=C(C2CCCCC2)c2ccccc21 | 4.27 | – | > 10 | – |
| CC(=O)CN1C(=O)N(CC(=O)Nc2cccc(C(=O)O)c2)N=C(C2CCCCC2)c2ccccc21 | 331 | – | > 10 | – |
| CC(C)(C)C(=O)CN1C(=O)N(CC(=O)Nc2cccc(C(=O)NS(C)(=O)=O)c2)N=C(C2CCCCC2)c2ccccc21 | 3.89 | – | 2.95 | – |
| CC(C)(C)C(=O)CN1C(=O)N(CC(=O)Nc2cccc(C(=O)O)c2)N=C(C2CCCCC2)c2ccccc21 | – | – | > 10 | – |
| O=C(CN1N=C(C2CCCCC2)c2ccccc2N(CC(=O)C23CC4CC(CC(C4)C2)C3)C1=O)Nc1cccc(C(=O)O)c1 | 5.62 | – | 1.91 | – |
| CC(C)(C)C(=O)CN1C(=O)N(CC(=O)Nc2cccc(C(=O)O)c2)N=C(C2CCCCCC2)c2ccccc21 | 4.79 | – | 5.75 | – |
| O=C(CN1N=C(C2CCCCC2)c2ccccc2N(CC(=O)C2CCCC2)C1=O)Nc1cccc(C(=O)O)c1 | 1 | – | > 10 | Kb [6]: 1.95 nM; Ki [7]: 7.08 nM |
| CC(C)CCN1C(=O)N(CC(=O)Nc2cccc(C(=O)O)c2)N=C(C2CCCCC2)c2ccccc21 | 20.4 | – | > 10 | – |
| CN(CC(=O)O)c1cccc(NC(=O)CN2N=C(C3CCCCC3)c3ccccc3N(CC(=O)C(C)(C)C)C2=O)c1 | 1.07 | 6460 | – | – |
| CC(C)(C)C(=O)CN1C(=O)N(CC(=O)Nc2cccc(-c3cn(CC(=O)O)cn3)c2)N=C(C2CCCCC2)c2ccccc21 | 4.07 | 1700 | – | – |
| CCOCCN1C(=O)N(CC(=O)Nc2cccc(C(=O)O)c2)N=C(C2CCCCC2)c2ccccc21 | 490 | – | – | – |
| O=C(O)CSc1cccc(NC(=O)CN2N=C(C3CCCCC3)c3ccccc3N(CC(=O)C3CCCC3)C2=O)c1 | – | 2090 | – | Ki [7]: 4.79 nM |
| Cc1ccccc1C(=O)CN1C(=O)N(CC(=O)Nc2cccc(C(=O)O)c2)N=C(C2CCCCC2)c2ccccc21 | 7.59 | – | > 10 | Ki [7]: 26.3 nM |
| CC(C)(C)C(=O)CN1C(=O)N(CC(=O)Nc2cccc(CCC(=O)O)c2)N=C(C2CCCCC2)c2ccccc21 | 1.86 | > 10000 | – | – |
| O=C(O)Cc1cccc(NC(=O)CN2N=C(C3CCCCC3)c3ccccc3N(CC(=O)C3CCCC3)C2=O)c1 | 0.282 | > 10000 | – | Ki [7]: 6.31 nM |
| CC(C)(C)C(=O)CN1C(=O)N(CC(=O)Nc2ccc3c(ccn3CC(=O)O)c2)N=C(C2CCCCC2)c2ccccc21 | 0.776 | 2510 | – | – |
| CC(C)(C)C(=O)CN1C(=O)N(CC(=O)Nc2cccc(Cc3nnn[nH]3)c2)N=C(C2CCCCC2)c2ccccc21 | 4.68 | > 10000 | – | – |
| O=C(O)CCc1cccc(NC(=O)CN2N=C(C3CCCCC3)c3ccccc3N(CC(=O)C3CCCC3)C2=O)c1 | 0.339 | 2510 | – | Ki [7]: 4.27 nM |
| CC(C)(C)C(=O)CN1C(=O)N(CC(=O)Nc2ccc3c(cnn3CC(=O)O)c2)N=C(C2CCCCC2)c2ccccc21 | 9.33 | 8130 | – | – |
| CNc1cccc(NC(=O)N[C@@H]2N=C(c3ccccn3)c3ccccc3N(CC(=O)C(C)(C)C)C2=O)c1 [NETAZEPIDE] | – | 28.8 | – | inhibition [4]: 97%; inhibition [5]: 66% |
| O=C(CN1N=C(C2CCCCC2)c2ccccc2N(CC(=O)N2CCCC2)C1=O)Nc1cccc(C(=O)O)c1 | 16.2 | – | > 10 | – |

From ChEMBL document CHEMBL1145380, “Optimization of 1,3,4-benzotriazepine-based CCK(2) antagonists to obtain potent, orally active inhibitors of gastrin-mediated gastric acid secretion” (J Med Chem, 2007)
